Experimental data: patent US5519021A, “Benzoxazinones as inhibitors of HIV reverse transcriptase” (priority 1995, dated 1996)

Columns and labels:
HIV-1 (wild-type) = experiment: Cell spread assay (MT-4 T-lymphoid cells); type: cell-based; details: Human immunodeficiency virus 1, MT4, 72 h; WT virus, MT-4 cells, N = 2; read-out: CIC95 (μM) WT
Experimental: (§1) Inhibition of the spread of HIV in cell culture was measured according to Nunberg, J. H. et al., J. Virol. 65, 4887 (1991 ). In this assay, MT-4 T-lymphoid cells were infected with HIV-1 (wild-type, unless otherwise indicated) by using a predetermined inoculum, and cultures were incubated for 24 h. At this time, ≤1% of the cells were positive by indirect immunofluorescence. Cells were then extensively washed and distributed into 96-well culture dishes. Serial twofold dilutions of inhibitor were added to the wells, and cultures were continued for 3 additional days. At 4 days postinfection, 100% of the cells in control cultures were infected. HIV-1 p24 accumulation was directly correlated with virus spread. The cell culture inhibitory concentration was defined as the inhibitor concentration in nanomoles/liter which reduced the spread of infection by at least 95%, or CIC95.

[1] = target: T1, reverse transcriptase of HIV2 (Human immunodeficiency virus type 2 subtype A, UniProt P04584); experiment: Reverse transcriptase assay, RT-2; type: biochemical
T1 construct: is the reverse transcriptase of HIV2
Experimental: The assay measures the incorporation of tritiated deoxyguanosine monophosphate by recombinant HIV reverse transcriptase (HIV RTR) (or other RT) into acid-precipitable cDNA at the Km values of dGTP and poly r(C).cndot.oligo d(G)12-18.
The assays were carried out in 55 mM Tris (pH 8.2)-30 mM KCl-30 mM MgCl2 -1 mM dithiothreitol-20 μg of rC:dG 12-18 (Pharmacia) per ml-8 mM [^3 H]dGTP (New England Nuclear)-0.01% Triton X-100-50 mM ethylene glycol-bis(β-amino-ethyl ether)-N,N,N',N'-tetraacetic acid (EGTA)-1 mg of bovine serum albumin per ml. After 60 min of incubation at 37° C., acid-precipitable material was collected onto glass fiber filters by using a semiautomatic cell harvester. Bacterial cell extracts containing RT were diluted to within the linear range of the assay, and activity was determined in the presence and absence of inhibitor. Purified HIV-1 RT heterodimer produced in E. coli also served as a control. Results are determined as inhibitor concentration to give 50% inhibition (IC50 wt), in nanomoles/liter.
is the reverse transcriptase of HIV2.

HIV-1 K103N = experiment: Cell spread assay, K103N mutant; type: cell-based; details: MT-4 cells
Experimental: as §1
(§2) *Mutants K103N and Y181C are drugresistant HIV1 reverse transcriptases. D

HIV-1 Y181C = experiment: Cell spread assay, Y181C mutant; type: cell-based; details: MT-4 cells
Experimental: as §1, §2

HIV-1 DM (double mutant) = experiment: Cell spread assay, double mutant (DM); type: cell-based; details: MT-4 cells
Experimental: as §1, §2
is the double mutant, as discussed in the reverse transcriptase assay. RT

[2] = Protein binding (HPLC method); type: in vitro ADME; details: Normal Human Plasma (HPLC Method)
Source text: Protein Binding: 98.0% Normal Human Plasma (HPLC Method)

T1 sequence (P04584 613-1171): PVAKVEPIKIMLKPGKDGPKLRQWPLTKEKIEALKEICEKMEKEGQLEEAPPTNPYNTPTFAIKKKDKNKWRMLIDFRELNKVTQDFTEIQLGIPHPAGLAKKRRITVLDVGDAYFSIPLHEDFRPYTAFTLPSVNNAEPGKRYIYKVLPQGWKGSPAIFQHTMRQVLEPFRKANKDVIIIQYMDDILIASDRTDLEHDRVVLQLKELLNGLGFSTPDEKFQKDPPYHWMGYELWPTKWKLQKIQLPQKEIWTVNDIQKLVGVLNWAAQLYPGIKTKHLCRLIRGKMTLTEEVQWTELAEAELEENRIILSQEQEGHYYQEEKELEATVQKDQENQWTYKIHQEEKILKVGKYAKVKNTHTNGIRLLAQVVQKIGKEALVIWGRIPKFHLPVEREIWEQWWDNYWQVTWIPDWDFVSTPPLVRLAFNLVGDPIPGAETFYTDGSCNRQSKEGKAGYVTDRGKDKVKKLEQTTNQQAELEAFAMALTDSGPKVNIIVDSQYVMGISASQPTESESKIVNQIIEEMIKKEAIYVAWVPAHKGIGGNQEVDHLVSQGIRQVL
T1 sequence (P04584 613-1051): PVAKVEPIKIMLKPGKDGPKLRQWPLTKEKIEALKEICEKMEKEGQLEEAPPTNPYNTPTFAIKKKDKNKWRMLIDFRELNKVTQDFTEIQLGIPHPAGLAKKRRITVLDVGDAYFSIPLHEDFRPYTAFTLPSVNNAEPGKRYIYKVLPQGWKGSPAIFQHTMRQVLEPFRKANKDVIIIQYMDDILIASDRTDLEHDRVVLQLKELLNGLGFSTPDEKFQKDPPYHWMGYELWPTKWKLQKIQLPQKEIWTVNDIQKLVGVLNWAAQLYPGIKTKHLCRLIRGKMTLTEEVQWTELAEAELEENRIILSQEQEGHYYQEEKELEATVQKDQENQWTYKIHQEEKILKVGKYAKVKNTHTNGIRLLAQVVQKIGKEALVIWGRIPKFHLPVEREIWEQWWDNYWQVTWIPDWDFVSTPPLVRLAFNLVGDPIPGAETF

O=C1Nc2ccc(Cl)cc2[C@@](C#CC2CC2)(C(F)(F)F)O1 [37.2(-), (-) 6-Chloro-4-cyclopropylethynyl-4-trifluoromethyl-1,4-dihydro-2H-3,1-benzoxazin-2-one]
IC95 (HIV-1 (wild-type)): < 0.006 µM
IC50 [1]: 80.8 µM
CIC95 (μM) K103N (HIV-1 K103N): 0.100 µM
CIC95 (μM) Y181C (HIV-1 Y181C): < 0.025 µM
CIC95 (μM) DM (HIV-1 DM (double mutant)): 0.400 µM
fraction unbound [2]: 0.02
